We go through 1 molecule from patent US8933099B2, “Monocyclic pyridine derivative” (Eisai R&D Management Co., Ltd., priority 2013, dated 2015).

What all share (type): in vivo
For experiment [1], the system named is human endometrial cancer cell line AN3CA xenograft. Put plainly: Antitumor effect in AN3CA subcutaneous xenograft model in mice. The conditions noted are these: oral, once a day for 14 days, tumor volume last day. The text has this:
(§1) Human endometrial cancer cell line AN3CA (ATCC Number HTB-111), which had been cultured in an RPM-1640 medium containing 10% FBS, and penicillin and streptomycin, were adjusted to a concentration of 1×10^8 cells/mL with Hanks' Balanced Salt Solution (GIBCO #24020) to prepare a cell suspension, and the suspension was mixed with […] (BD Biosciences, Cat#354234) in a ratio of 1:1 to prepare a cell suspension in a concentration of 5×10^7 cells/ml. The cell suspension was inoculated in a volume of 100 into a subcutaneous part of a right flank of nude mice, 7 weeks of age (BALB/cAJcl-nu/nu, female, Clea Japan Inc.). Eleven days after cell inoculation, the shortest diameter and the longest diameter of a tumor in each mouse were measured by using an electronic digital caliper (Digimatic™ caliper, Mitutoyo Corporation), so as to calculate the volume of the tumor in accordance with the following calculation formula: Tumor volume(mm^3)=Longest diameter(mm)×Shortest diameter(mm)×Shortest diameter(mm)/2
(§2) On the basis of the volumes of tumors obtained on the first day of administration, the nude mice were grouped such that averages of the tumor volumes were substantially equal among the groups. Each test substance was dissolved in DMSO, Tween 80 was added thereto to prepare a solution in a 10-fold concentration and the thus prepared solution was stored at the freezer before use. Immediately before the administration, the stock solution was diluted with a 5% glucose solution to obtain a final administration solution (in which a ratio in % among DMSO, Tween 80 and the 5% glucose solution was 3.5:6.5:90). Each evaluation sample was orally administered to test substance administration group at a volume of 0.4 mL per 20 g of body weight once a day continuously for 14 days, and in a control group, an administration solvent was orally administered under the same conditions. Incidentally, the experiment was conducted on groups each consisting of 5 mice.
(§3) With respect to each of the control group and test substance administration group, a ratio of the weight measured on the final day to the weight measured on the first day (relative body weight: RBW) was calculated. If a ratio of the RBW of the test substance administration group/the RBW of the control group is 0.9 or more, the corresponding test substance administration group was defined as a well-tolerated. In the test substance administration group thus defined as well-tolerated, a ratio of the tumor volume of the test substance-dosing group to the tumor volume of the control group obtained on the last day (T/C) (%) was calculated, and shown in Table 26.

Experiment [2] relates to human endometrial cancer cell line MFE296 xenograft. Put plainly: Antitumor effect in MFE296 subcutaneous xenograft model in mice. The conditions noted are these: oral, once a day for 14 days, tumor volume last day.
Excerpt: as §1, with “MFE296 (DSMZ” for “AN3CA (ATCC”, “ACC-419),” for “HTB-111),”, “RPMI-1640” for “RPM-1640”, “The” for “The cell”, “100 μL” for “100”, “Twelve” for “Eleven”
as §2
as §3, with “(TIC)” for “(T/C)”, “27.” for “26.”

In experiment [3] the test system is human lung cancer cell line NCI-H1581 xenograft. Briefly: Antitumor effect in NCI-H1581 subcutaneous xenograft model in mice. The conditions noted are these: oral, once a day for 11 days, tumor volume last day. On the procedure: Human lung cancer cell line NCI-H1581, which had been cultured in RPMI-1640 medium containing 10% FBS, and penicillin and streptomycin, were adjusted to a concentration of 1×10^8 cells/mL with Hanks' Balanced Salt Solution(GIBCO #24020) to prepare a cell suspension, and the suspension was mixed with […] in a ratio of 1:1 to prepare a cell suspension in a concentration of 5×10^7 cells/mL. The cell suspension was inoculated in a volume of 100 μL into a subcutaneous part of a right flank of each of nude mice, 6 to 7 weeks of ages (BALB/cAJcl-nu/nu, female, Clea Japan Inc.). Ten to 11 days after the cell inoculation, the shortest diameter and the longest diameter of a tumor in each mouse were measured by using an electronic digital caliper (Digimatic™ caliper, Mitutoyo Corporation), so as to calculate the volume of the tumor in accordance with the following calculation formula: Tumor volume(mm^3)=Longest diameter(mm)×Shortest diameter(mm)×Shortest diameter(mm)/2
as §2, with “11” for “14”
as §3, with “(TIC)” for “(T/C)”, “22.” for “26.”

On to `CNC(=O)n1ccc2cc(Oc3ccnc(NC(=O)c4ccc(C5CCN(CCO)CC5)cc4)c3)c(OCCOC)cc21` [Example 22, 5-((2-(4-(1-(2-Hydroxyethyl)piperidin-4-yl)benzamide)pyridin-4-yl)oxy)-6-(2-methoxyethoxy)-N-methyl-1H-indole-1-carboxamide], for which the “T/C (%)” value in experiment [1] (6.25 mg/kg) is 29%; in experiment [1] (12.5 mg/kg) it was 11%; in experiment [1] (25 mg/kg) it was 4%; in experiment [1] (50 mg/kg), 2%; in experiment [2] (6.25 mg/kg) it was 91%; in experiment [2] (12.5 mg/kg), 85%. Also, the “T/C (%)” value in experiment [2] (25 mg/kg) is 60%; in experiment [2] (50 mg/kg) it was 54%; in experiment [3] (6.25 mg/kg), 46%; in experiment [3] (12.5 mg/kg) it was 21%; in experiment [3] (25 mg/kg), 13%; in experiment [3] (50 mg/kg), 8%.
